Test system: HT29 cells
Experiment: Inhibition of cell necrosis (CCK8 method), induced programmed necrosis of HT29 cells
Format: cell-based
Settings: Homo sapiens, HT-29; rescue from necrosis induced by TNF-α 20 ng/mL, AT-406 1 μM, Z-VAD-FMK 20 μM; 16-20 hours; CCK-8, OD 450 nm
Method in brief: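 Rescue from programmed necrosis was scored by CCK-8 absorbance at 450 nm after 16-20 h of TNF-α (20 ng/mL), AT-406 (1 μM) and Z-VAD-FMK (20 μM) at 37 °C, 5% CO2. HT29 cells had received compound 30 min earlier across nine 4-fold dilutions (top 25000 nM final). IC50 came from % inhibition relative to uninduced and induced-only wells.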

SMILES: O=C(Nc1cc(-c2cc(OCC3CCOCC3)ccc2Cl)ncn1)c1nnc(CC2CCCC2)[nH]1 [Example 468, 5-(cyclopentylmethyl)-N-(6-(2-chloro-5-((tetrahydro-2H-pyran-4-yl)methoxy)phenyl)pyrimidin-4-yl)-4H-1,2,4-triazole-3-carboxamide]
- IC50: ≤ 100 nM

SMILES: O=C(Nc1cc(-c2cc(OCCC3CCOCC3)ccc2F)ccn1)c1nnc(CC2CCCCC2)[nH]1 [Example 317, 5-(cyclohexylmethyl)-N-(4-(2-fluoro-5-(2-(tetrahydro-2H-pyran-4-yl)ethoxy)phenyl)pyridin-2-yl)-4H-1,2,4-triazole-3-carboxamide]
- IC50: ≤ 100 nM

SMILES: CCC(O)(CC)CCCOc1ccc(F)c(-c2cc(NC(=O)c3nnc(CC4CCCCC4)[nH]3)ncc2Cl)c1 [Example 324, 5-(cyclohexylmethyl)-N-(5-chloro-4-(5-((4-ethyl-4-hydroxyhexyl)oxy)-2-fluorophenyl)pyridin-2-yl)-4H-1,2,4-triazole-3-carboxamide]
- IC50: 100 to 1000 nM

SMILES: CC(C)(O)CCCCOc1ccc(F)c(-c2cc(NC(=O)c3nnc(Cc4ccccc4F)[nH]3)ncc2Cl)c1 [Example 325, N-(5-chloro-4-(2-fluoro-5-((5-hydroxyl-5-methylhexyl)oxy)phenyl)pyridin-2-yl)-5-(2-fluorobenzyl)-4H-1,2,4-triazole-3-carboxamide]
- IC50: 100 to 1000 nM

SMILES: Cc1ccc(OCCCC(C)(C)O)cc1-c1ccnc(NC(=O)c2nnc(Cc3ccc(F)cc3F)[nH]2)c1 [Example 201, 5-(2,4-difluorobenzyl)-N-(4-(5-((4-hydroxy-4-methylpentyl)oxy)-2-methylphenyl)pyridin-2-yl)-4H-1,2,4-triazole-3-carboxamide]
- IC50: ≤ 100 nM

SMILES: CCC(O)(CC)CCCOc1ccc(Cl)c(-c2cc(NC(=O)c3nnc(CC4CCCCC4)[nH]3)ncc2F)c1 [Example 416, N-(4-(2-chloro-5-((4-ethyl-4-hydroxyhexyl)oxy)phenyl)-5-fluoropyridin-2-yl)-5-(cyclohexylmethyl)-4H-1,2,4-triazole-3-carboxamide]
- IC50: ≤ 100 nM

SMILES: CC(C)(O)CCCOc1ccc(Cl)c(-c2ccnc(NC(=O)c3nnc(Cc4cc(C(F)(F)F)ccc4F)[nH]3)c2)c1 [Example 347, N-(4-(2-chloro-5-((4-hydroxy-4-methylpentyl)oxy)phenyl)pyridin-2-yl)-5-(2-fluoro-5-(trifluoromethyl)benzyl)-4H-1,2,4-triazole-3-carboxamide]
- IC50: 100 to 1000 nM

SMILES: Cc1ccc(OCCCC(C)(C)O)cc1-c1ccnc(NC(=O)c2nnc(Cc3cc(F)c(F)cc3F)[nH]2)c1 [Example 218, 5-(2,4,5-trifluorobenzyl)-N-(4-(5-((4-hydroxy-4-methylpentyl)oxy)-2-methylphenyl)pyridin-2-yl)-4H-1,2,4-triazole-3-carboxamide]
- IC50: ≤ 100 nM

SMILES: O=C(Nc1cc(-c2cc(OCC3CCOCC3)ccc2C(F)(F)F)ccn1)c1nnc(Cc2cccc(F)c2)[nH]1 [Example 301, 5-(3-fluorobenzyl)-N-(4-(5-((tetrahydro-2H-pyran-4-yl)methoxy)-2-(trifluoromethyl)phenyl)pyridin-2-yl)-4H-1,2,4-triazole-3-carboxamide]
- IC50: ≤ 100 nM

SMILES: Cc1ccc(OCCC2CCOCC2)cc1-c1cc(NC(=O)c2nnc(Cc3ccccc3F)[nH]2)ncn1 [Example 446, 5-(2-fluorobenzyl)-N-(6-(2-methyl-5-(2-(tetrahydro-2H-pyran-4-yl)ethoxy)phenyl)pyrimidin-4-yl)-4H-1,2,4-triazole-3-carboxamide]
- IC50: ≤ 100 nM

SMILES: CC(C)(O)CCCOc1ccc(C(F)(F)F)c(-c2cc(NC(=O)c3nnc(CC4CCCC4)[nH]3)ncn2)c1 [Example 452, 5-(cyclopentylmethyl)-N-(6-(5-((4-hydroxy-4-methylpentyl)oxy)-2-(trifluoromethyl)phenyl)pyrimidin-4-yl)-4H-1,2,4-triazole-3-carboxamide]
- IC50: ≤ 100 nM

SMILES: Cc1ccc(OCC2CCOC2)cc1-c1ccnc(NC(=O)c2nnc(Cc3ccccc3)[nH]2)c1 (stereo not shown) [Example 122, 5-benzyl-N-(4-(2-methyl-5-((tetrahydrofuran-3-yl)methoxy)phenyl)pyridin-2-yl)-4H-1,2,4-triazole-3-carboxamide]
- IC50: ≤ 100 nM

SMILES: COc1ccc(C)c(-c2ccnc(NC(=O)c3nnc(CC4CCCCC4)[nH]3)c2)c1 [Example 103, 5-(cyclohexylmethyl)-N-(4-(5-methoxy-2-methylphenyl)pyridin-2-yl)-4H-1,2,4-triazole-3-carboxamide]
- IC50: 100 to 1000 nM

SMILES: Cc1ccc(OCCCCCO)cc1-c1ccnc(NC(=O)c2nnc(Cc3ccccc3)[nH]2)c1 [Example 153, 5-benzyl-N-(4-(5-((5-hydroxylpentyl)oxy)-2-methylphenyl)pyridin-2-yl)-4H-1,2,4-triazole-3-carboxamide]
- IC50: ≤ 100 nM

SMILES: O=C(Nc1cc(-c2cc(OCC3CCOCC3)ccc2C(F)(F)F)ncn1)c1nnc(Cc2ccccc2)[nH]1 [Example 454, 5-benzyl-N-(6-(5-((tetrahydro-2H-pyran-4-yl)methoxy)-2-(trifluoromethyl)phenyl)pyrimidin-4-yl)-4H-1,2,4-triazole-3-carboxamide]
- IC50: ≤ 100 nM

SMILES: O=C(Nc1cc(-c2cc(OCCC3CCOCC3)ccc2C(F)(F)F)ccn1)c1nnc(Cc2cccc(F)c2)[nH]1 [Example 307, 5-(3-fluorobenzyl)-N-(4-(5-(2-(tetrahydro-2H-pyran-4-yl)ethoxy)-2-(trifluoromethyl)phenyl)pyridin-2-yl)-4H-1,2,4-triazole-3-carboxamide]
- IC50: ≤ 100 nM

SMILES: CCC(O)(CC)CCCOc1ccc(C)c(-c2cc(NC(=O)c3nnc(CC4CCCCC4)[nH]3)ncc2Cl)c1 [Example 245, N-(5-chloro-4-(5-((4-ethyl-4-hydroxyhexyl)oxy)-2-methylphenyl)pyridin-2-yl)-5-(cyclohexylmethyl)-4H-1,2,4-triazole-3-carboxamide]
- IC50: ≤ 100 nM

SMILES: C=Cc1ccc(OCCOC(C)(C)C)cc1-c1ccnc(NC(=O)c2nnc(Cc3ccccc3)[nH]2)c1 [Example 78, 5-benzyl-N-(4-(5-(2-(tert-butoxy)ethoxy)-2-vinylphenyl)pyridin-2-yl)-4H-1,2,4-triazole-3-carboxamide]
- IC50: ≤ 100 nM

SMILES: COCCCOc1ccc(C(F)(F)F)c(-c2ccnc(NC(=O)c3nnc(Cc4ccccc4)[nH]3)c2)c1 [Example 295, 5-benzyl-N-(4-(5-(3-methoxypropoxy)-2-(trifluoromethyl)phenyl)pyridin-2-yl)-4H-1,2,4-triazole-3-carboxamide]
- IC50: ≤ 100 nM

SMILES: Cc1ccc(OCCO)cc1-c1ccnc(NC(=O)c2nnc(Cc3ccccc3)[nH]2)c1 [Example 125, 5-benzyl-N-(4-(5-(2-hydroxyethoxy)-2-methylphenyl)pyridin-2-yl)-4H-1,2,4-triazole-3-carboxamide]
- IC50: 100 to 1000 nM

SMILES: Cc1cc(Cl)ccc1-c1ccnc(NC(=O)c2nnc(Cc3ccccc3)[nH]2)c1 [Example 11, 5-benzyl-N-(4-(4-chloro-2-methylphenyl)pyridin-2-yl)-4H-1,2,4-triazole-3-carboxamide]
- IC50: 1000 to 10000 nM

SMILES: O=C(Nc1cc(-c2cc(OCC3CCOCC3)ccc2F)c(Cl)cn1)c1nnc(Cc2ccccc2F)[nH]1 [Example 329, N-(5-chloro-4-(2-fluoro-5-((tetrahydro-2H-pyran-4-yl)methoxy)phenyl)pyridin-2-yl)-5-(2-fluorobenzyl)-4H-1,2,4-triazole-3-carboxamide]
- IC50: 100 to 1000 nM

SMILES: CC(C)(O)CCCOc1cc(F)c(Cl)c(-c2ccnc(NC(=O)c3nnc(Cc4ccccc4)[nH]3)c2)c1 [Example 407, 5-benzyl-N-(4-(2-chloro-3-fluoro-5-((4-hydroxy-4-methylpentyl)oxy)phenyl)pyridin-2-yl)-4H-1,2,4-triazole-3-carboxamide]
- IC50: > 10000 nM

SMILES: O=C(Nc1cc(-c2cc(OCCC3CCOCC3)ccc2Cl)ncn1)c1nnc(Cc2ccccc2)[nH]1 [Example 470, 5-benzyl-N-(6-(2-chloro-5-(2-(tetrahydro-2H-pyran-4-yl)ethoxy)phenyl)pyrimidin-4-yl)-4H-1,2,4-triazole-3-carboxamide]
- IC50: ≤ 100 nM

SMILES: Cc1ccc(OCCC2CCOCC2)cc1-c1cc(NC(=O)c2nnc(Cc3ccccc3F)[nH]2)ncc1C [Example 253, 5-(2-fluorobenzyl)-N-(5-methyl-4-(2-methyl-5-(2-(tetrahydro-2H-pyran-4-yl)ethoxy)phenyl)pyridin-2-yl)-4H-1,2,4-triazole-3-carboxamide]
- IC50: 100 to 1000 nM

SMILES: COCCCOc1ccc(C)c(-c2ccnc(NC(=O)c3nnc(Cc4ccccc4)s3)c2)c1 [Example 146, 5-benzyl-N-(4-(5-(3-methoxypropoxy)-2-methylphenyl)pyridin-2-yl)-1,3,4-thiodiazol-2-carboxamide]
- IC50: 1000 to 10000 nM

SMILES: O=C(Nc1cc(-c2cc(OCCCCO)ccc2Cl)ccn1)c1nnc(Cc2ccccc2F)[nH]1 [Example 372, 5-(2-fluorobenzyl)-N-(4-(2-chloro-5-(4-hydroxybutoxy)phenyl)pyridin-2-yl)-4H-1,2,4-triazole-3-carboxamide]
- IC50: ≤ 100 nM

SMILES: Cc1ccc(OC2COC2)cc1-c1ccnc(NC(=O)c2nnc(Cc3ccccc3)[nH]2)c1 [Example 86, 5-benzyl-N-(4-(2-methyl-5-(oxetan-3-yloxy)phenyl)pyridin-2-yl)-4H-1,2,4-triazole-3-carboxamide]
- IC50: ≤ 100 nM

SMILES: Cc1cc(-c2ccnc(NC(=O)c3nnc(Cc4ccccc4)[nH]3)c2)n(C)n1 [Example 27, 5-benzyl-N-(4-(1,3-dimethyl-1H-pyrazol-5-yl)pyridin-2-yl)-4H-1,2,4-triazole-3-carboxamide]
- IC50: 1000 to 10000 nM

SMILES: CCC(O)(CC)CCCOc1ccc(C)c(-c2ccnc(NC(=O)c3nnc(Cc4ccccc4)[nH]3)c2)c1 [Example 165]
- IC50: ≤ 100 nM

SMILES: CCC(O)(CC)CCCOc1ccc(C)c(-c2cc(NC(=O)c3nnc(Cc4ccccc4F)[nH]3)ncc2Cl)c1 [Example 244, N-(5-chloro-4-(5-((4-ethyl-4-hydroxyhexyl)oxy)-2-methylphenyl)pyridin-2-yl)-5-(2-fluorobenzyl)-4H-1,2,4-triazole-3-carboxamide]
- IC50: ≤ 100 nM
